Reference: patent US20220370453A1 (Storm Therapeutics Ltd, priority 2019, published 2022)

Assays:
BCDIN3D [1] = biological target: T1, BCDIN3D (Homo sapiens, UniProt Q7Z5W3); assay: BCDIN3D IC50 RFMS (RapidFire) assay with mini-helix; format: biochemical; details: 25 nM enzyme
T1 sequence (Q7Z5W3 1-292): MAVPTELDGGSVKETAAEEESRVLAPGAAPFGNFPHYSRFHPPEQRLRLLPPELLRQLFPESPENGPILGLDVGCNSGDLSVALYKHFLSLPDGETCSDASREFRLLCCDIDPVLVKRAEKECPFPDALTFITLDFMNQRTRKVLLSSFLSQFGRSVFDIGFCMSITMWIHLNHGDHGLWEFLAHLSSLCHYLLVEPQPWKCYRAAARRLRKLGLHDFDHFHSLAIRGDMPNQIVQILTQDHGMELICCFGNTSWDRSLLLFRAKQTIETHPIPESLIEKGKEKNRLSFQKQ
Description: The following General Methods details the assay conditions for the Biological assays.
BCDIN3D IC50 RFMS Assay with Mini-Helix
The enzymatic assay was performed in a 384-well polypropylene plate in assay buffer with 25 mM Tris pH 8.0, 10 mM DTT, 1 mM EDTA, 0.03% BSA in a final assay volume of 20 μL. The enzyme with a final concentration of 25 nM was pre-incubated with the respective compound at 1% DMSO final assay concentration over 10 min at room temperature. The reaction was initiated by addition of 0.2 μM final assay concentration of mini-helix and 6 μM final concentration of SAM as substrates. After a 1 hr incubation at 37° C., the reaction was terminated with 40 μL of stop solution of 7.5% trichloroactetic acid in water containing 112.5 nM D4-SAH and 30 nM ^13C10-SAH used as internal standards. The SAH product concentrations as well as both internal standards were analyzed by a RapidFire High Throughput Mass Spectrometry System (Agilent Technologies, Santa Clara, Calif.) using an AP14000 triple quadrupole mass spectrometer (AB Sciex Framingham, Mass.).

BCDIN3D [2] = biological target: T1, BCDIN3D; assay: BCDIN3D InCellPulse thermal stability assay in transfected A549 cells; format: cell-based; details: heat shock 58° C. 15 min
Description: BCDIN3D InCellPulse™ Assay
The thermal stability assay was performed with lipofectamine 3000 transiently transfected A549 using the plasmid pICP-ePL-BCDIN3 Da. This plasmid encodes for BCDIN3D N-terminally fused to a Prolabel (ePL), complementing a split β-Galactosidase Enzyme System InCELL Pulse Technology (InCELL Hunter Detection Kit, DiscoverX/Eurofins, cat: 96-0079L). 20 μl A549 cells (1500 cell/well) were added with a multidrop device to compounds to a final DMSO concentration of 0.6% in 384-well polypropylene plate format in IMDM medium and pre-incubated with the compounds for 1 h at 37° C. and 5% CO2. Subsequently, a heat shock was applied to the entire sealed plate in a 58° C. water bath for 15 min. The plates were cooled to RT, spun down and 25 μl/well of EA Detection Solution at 3.3× (InCELL Hunter Detection Kit) was added per well. 21 μl of the mixture was added to a black 384-well measurement plate (Corning, PS, black, Flat Bottom, #3575), mix for 30 minutes on a plate shaker at RT. Finally, the luminescence was measured with a Perkin Elmer EnVision with 0.2 s measurement time in luminescence mode.

[3] = mini-helix 0.2 μM and SAM 6 μM as substrates, 1 hr at 37° C.
[4] = A549 cells transiently transfected with ePL-BCDIN3D, 1 h pre-incubation
[5] = mini-helix substrate 0.2 μM, SAM 6 μM
[6] = transiently transfected A549 cells

| Compound | IC50 (BCDIN3D [1]; [3]) [nM] | IC50 (BCDIN3D [2]; [4]) [nM] | IC50 (BCDIN3D [1]; [5]) [nM] | IC50 (BCDIN3D [2]; [6]) [nM] |
| --- | --- | --- | --- | --- |
| Cc1nn(C)c2nc(NCC(C)(C)N)nc(Nc3cccc(C(F)(F)F)c3)c12 [Compound 1.33, N6-(2-amino-2-methylpropyl)-1,3-dimethyl-N4-[3-(trifluoromethyl)phenyl]-1H-pyrazolo[3,4-d]pyrimidine-4,6-diamine] | 4330 | 6460 |  |  |
| Cc1ccc(CNc2nc(NC3CCCCC3N)nc3c2cnn3C)cc1Cl (centres unmarked) [Compound 1.34, 6-N-(2-aminocyclohexyl)-4-N-[(3-chloro-4-methylphenyl)methyl]-1-methylpyrazolo[3,4-d]pyrimidine-4,6-diamine] | 1140 | 1410 |  |  |
| Cn1ncc2c(Nc3ccc(C(F)(F)F)nc3)nc(NCC3(N)CCOCC3)nc21 [Compound 1.35, 6-N-[(4-aminooxan-4-yl)methyl]-1-methyl-4-N-[6-(trifluoromethyl)pyridin-3-yl]pyrazolo[3,4-d]pyrimidine-4,6-diamine] | 3950 | 7880 |  |  |
| Cn1ncc2c(Nc3ccc(C(F)(F)F)cc3)nc(N[C@H]3COC[C@H]3N)nc21 [Compound 1.36, N6-[(3R,4S)-4-aminotetrahydrofuran-3-yl]-1-methyl-N4-[4-(trifluoromethyl)phenyl]pyrazolo[3,4-d]pyrimidine-4,6-diamine] | 5660 | 10600 |  |  |
| Cc1ccc(CNc2nc(NCC3(N)CC3)nc3c2cnn3C)cc1Cl [Compound 2.01, 6-N-[(1-Aminocyclopropyl)methyl]-4-N-[(3-chloro-4-methylphenyl)methyl]-1-methylpyrazolo[3,4-d]pyrimidine-4,6-diamine] |  |  | 275 | 707 |
| COc1ccc(Nc2nc(NCC3(N)CC3)nc3c2cnn3C)cc1Cl [Compound 2.04, 6-N-[(1-aminocyclopropyl)methyl]-4-N-(3-chloro-4-methoxyphenyl)-1-methylpyrazolo[3,4-d]pyrimidine-4,6-diamine] |  |  | 60.8 | 1800 |
| Cn1ncc2c(Nc3ccc(F)cc3F)nc(NCC3(N)CC3)nc21 [Compound 2.05, 6-N-[(1-aminocyclopropyl)methyl]-4-N-(2,4-difluorophenyl)-1-methylpyrazolo[3,4-d]pyrimidine-4,6-diamine] |  |  | 1670 | 5050 |
| Cn1ncc2c(Nc3cccc(C(F)(F)F)c3)nc(NCC3(N)CC3)nc21 [Compound 2.06, 6-N-[(1-aminocyclopropyl)methyl]-1-methyl-4-N-[3-(trifluoromethyl)phenyl]pyrazolo[3,4-d]pyrimidine-4,6-diamine] |  |  | 509 | 2210 |
| Cn1ncc2c(Nc3cccc(C(F)F)c3)nc(NCC3(N)CC3)nc21 [Compound 2.07, 6-N-[(1-aminocyclopropyl)methyl]-4-N-[3-(difluoromethyl)phenyl]-1-methylpyrazolo[3,4-d]pyrimidine-4,6-diamine] |  |  | 443 | 4100 |
| Cn1ncc2c(Nc3ccc(F)cc3)nc(NCC3(N)CC3)nc21 [Compound 2.08, 6-N-[(1-aminocyclopropyl)methyl]-4-N-(4-fluorophenyl)-1-methylpyrazolo[3,4-d]pyrimidine-4,6-diamine] |  |  | 242 | 2720 |
| Cc1ccc(Nc2nc(NCC3(N)CC3)nc3c2cnn3C)cc1Cl [Compound 2.09, 6-N-[(1-aminocyclopropyl)methyl]-4-N-(3-chloro-4-methylphenyl)-1-methylpyrazolo[3,4-d]pyrimidine-4,6-diamine] |  |  | 39.8 | 602 |
| Cn1ncc2c(Nc3cccnc3)nc(NCC3(N)CC3)nc21 [Compound 2.10, 6-N-[(1-aminocyclopropyl)methyl]-1-methyl-4-N-pyridin-3-ylpyrazolo[3,4-d]pyrimidine-4,6-diamine] |  |  | 8680 | 15700 |
| Cn1ncc2c(Nc3ccccc3)nc(NCC3(N)CC3)nc21 [Compound 2.11, 6-N-[(1-aminocyclopropyl)methyl]-1-methyl-4-N-phenylpyrazolo[3,4-d]pyrimidine-4,6-diamine] |  |  | 490 | 2890 |
| Cn1ncc2c(NCc3ccc(Br)cc3)nc(NCC3(N)CC3)nc21 [Compound 2.13, 6-N-[(1-aminocyclopropyl)methyl]-4-N-[(4-bromophenyl)methyl]-1-methylpyrazolo[3,4-d]pyrimidine-4,6-diamine] |  |  | 369 | 1610 |
| Cn1ncc2c(Nc3ccc(Cl)cc3F)nc(NCC3(N)CC3)nc21 [Compound 2.15, 6-N-[(1-aminocyclopropyl)methyl]-4-N-(4-chloro-2-fluorophenyl)-1-methylpyrazolo[3,4-d]pyrimidine-4,6-diamine] |  |  | 446 | 1630 |
| Cn1ncc2c(NC34CC(c5ccccc5)(C3)C4)nc(NCC3(N)CC3)nc21 [Compound 2.18, N6-[(1-aminocyclopropyl)methyl]-1-methyl-N4-(1-phenyl-3-bicyclo[1.1.1]pentanyl)pyrazolo[3,4-d]pyrimidine-4,6-diamine] |  |  | 111 | 207 |
| Cn1ncc2c(NCc3ccc(C(F)(F)F)nc3)nc(NCC3(N)CC3)nc21 [Compound 2.19, 6-N-[(1-aminocyclopropyl)methyl]-1-methyl-4-N-[[6-(trifluoromethyl)pyridin-3-yl]methyl]pyrazolo[3,4-d]pyrimidine-4,6-diamine] |  |  | 7120 | 11700 |

The remaining lines, values ahead:

| IC50 (BCDIN3D [1]; [3]) [nM] | IC50 (BCDIN3D [2]; [4]) [nM] | IC50 (BCDIN3D [1]; [5]) [nM] | IC50 (BCDIN3D [2]; [6]) [nM] | Compound |
| --- | --- | --- | --- | --- |
| 77.9 | 234 |  |  | Cn1ncc2c(Nc3ccc(C(F)(F)F)cc3)nc(NCC3(N)CCCCC3)nc21 [Compound 1.32, N6-[(1-aminocyclohexyl)methyl]-1-methyl-N4-[4-(trifluoromethyl)phenyl]pyrazolo[3,4-d]pyrimidine-4,6-diamine] |
| 8630 | 4000 |  |  | Cc1nn(C)c2nc(NCC(C)(C)N)cc(NCc3cccc(C(F)(F)F)c3)c12 [Compound 1.38, 6-N-(2-Amino-2-methylpropyl)-1,3-dimethyl-4-N-[[3-(trifluoromethyl)phenyl]methyl]pyrazolo[3,4-b]pyridine-4,6-diamine] |
|  |  | 505 | 1910 | Cn1ncc2c(NCc3ccc(F)c(Cl)c3)nc(NCC3(N)CC3)nc21 [Compound 2.02, 6-N-[(1-Aminocyclopropyl)methyl]-4-N-[(3-chloro-4-fluorophenyl)methyl]-1-methylpyrazolo[3,4-d]pyrimidine-4,6-diamine] |
|  |  | 20.7 | 282 | Cn1ncc2c(Nc3ccc(C(F)(F)F)c(F)c3)nc(NCC3(N)CC3)nc21 [Compound 2.03, N6-[(1-aminocyclopropyl)methyl]-N4-[3-fluoro-4-(trifluoromethyl)phenyl]-1-methyl-pyrazolo[3,4-d]pyrimidine-4,6-diamine] |
|  |  | 588 | 1490 | Cn1ncc2c(NCc3cccc(Br)c3)nc(NCC3(N)CC3)nc21 [Compound 2.12, 6-N-[(1-aminocyclopropyl)methyl]-4-N-[(3-bromophenyl)methyl]-1-methylpyrazolo[3,4-d]pyrimidine-4,6-diamine] |
|  |  | 5960 | 9590 | Cn1ncc2c(Nc3ccc(F)cc3Cl)nc(NCC3(N)CC3)nc21 [Compound 2.14, 6-N-[(1-aminocyclopropyl)methyl]-4-N-(2-chloro-4-fluorophenyl)-1-methylpyrazolo[3,4-d]pyrimidine-4,6-diamine] |
|  |  | 452 | 959 | Cn1ncc2c(Nc3cc(F)cc(Cl)c3)nc(NCC3(N)CC3)nc21 [Compound 2.16, 6-N-[(1-aminocyclopropyl)methyl]-4-N-(3-chloro-5-fluorophenyl)-1-methylpyrazolo[3,4-d]pyrimidine-4,6-diamine] |
|  |  | 440 | 2560 | Cn1ncc2c(Nc3ccc(Cl)c(C#N)c3)nc(NCC3(N)CC3)nc21 [Compound 2.17, 5-[[6-[(1-aminocyclopropyl)methylamino]-1-methyl-pyrazolo[3,4-d]pyrimidin-4-yl]amino]-2-chloro-benzonitrile] |
